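All cell lines were grown in 96-well plates and treated with compound for 48 hours. GI50 is the concentration that inhibits growth by half.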 Activity calls are given as the source filed them. Cut-off read from the data, not from the text of the source: active = GI50 up to about 1.1 µM and inactive = higher.
Columns and labels:
Experiment in all cases: growth of human tumour cells (NCI), 48 h
RXF 393 = tested on: RXF 393
MCF7 = tested on: MCF7
TK-10 = tested on: TK-10
NCI-H226 = tested on: NCI-H226
ACHN = tested on: ACHN
IGROV-1 = tested on: IGROV-1
SK-MEL-2 = tested on: SK-MEL-2
A549 = tested on: A549
NCI-H23 = tested on: NCI-H23
SF-539 = tested on: SF-539
PC-3 = tested on: PC-3
NCI-H460 = tested on: NCI-H460
HOP-62 = tested on: HOP-62
HT-29 = tested on: HT-29
RPMI-8226 = tested on: RPMI-8226
786-0 = tested on: 786-0
OVCAR-3 = tested on: OVCAR-3
COLO 205 = tested on: COLO 205
HCT-116 = tested on: HCT-116
LOX IMVI = tested on: LOX IMVI

Measured: GI50

CSc1nc2c(=O)n(-c3ccccc3)c(=S)n(-c3ccccc3)c2s1
inactive: RXF 393 34.4 µM | MCF7 > 100 µM | TK-10 42.1 µM | NCI-H226 31.1 µM | ACHN 45.4 µM | IGROV-1 > 100 µM | SK-MEL-2 > 100 µM | A549 > 100 µM | NCI-H23 > 100 µM | SF-539 39.9 µM | PC-3 > 100 µM | NCI-H460 > 100 µM | HOP-62 42 µM | HT-29 > 100 µM | RPMI-8226 > 100 µM | 786-0 25.9 µM | OVCAR-3 67 µM | COLO 205 > 100 µM | HCT-116 > 100 µM | LOX IMVI 82 µM

CCOP(=O)(OCC)/C(C#N)=C(\C)c1ccco1
inactive: RXF 393 > 10 µM | MCF7 > 10 µM | TK-10 > 10 µM | NCI-H226 > 10 µM | ACHN > 10 µM | IGROV-1 > 10 µM | SK-MEL-2 > 10 µM | A549 > 10 µM | NCI-H23 > 10 µM | SF-539 > 10 µM | PC-3 > 10 µM | NCI-H460 > 10 µM | HOP-62 > 10 µM | HT-29 > 10 µM | RPMI-8226 > 10 µM | 786-0 > 10 µM | OVCAR-3 > 10 µM | COLO 205 > 10 µM | HCT-116 > 10 µM | LOX IMVI > 10 µM

OC(c1ccc(F)cc1)(c1ccc(F)cc1)C1CC1
inactive: RXF 393 26.9 µM | MCF7 35.7 µM | TK-10 30.7 µM | NCI-H226 26.6 µM | ACHN 30.1 µM | IGROV-1 28.9 µM | SK-MEL-2 16.1 µM | A549 26.6 µM | NCI-H23 17.5 µM | SF-539 33.3 µM | PC-3 20 µM | NCI-H460 29 µM | HOP-62 65.9 µM | HT-29 21.5 µM | RPMI-8226 26.9 µM | 786-0 29.2 µM | OVCAR-3 32.5 µM | COLO 205 16.2 µM | HCT-116 26.8 µM | LOX IMVI 20 µM

O=C(O)/C(Cl)=C(/Cl)C(=O)Nc1cccc(Cl)c1
inactive: RXF 393 16.4 µM | MCF7 24.8 µM | TK-10 18.1 µM | NCI-H226 24.8 µM | ACHN 18.5 µM | IGROV-1 18.8 µM | SK-MEL-2 20.8 µM | A549 48.1 µM | NCI-H23 15.9 µM | SF-539 17.6 µM | PC-3 18.5 µM | NCI-H460 > 87.9 µM | HOP-62 > 59.4 µM | HT-29 20 µM | RPMI-8226 12.1 µM | 786-0 16.9 µM | OVCAR-3 16.7 µM | COLO 205 10.2 µM | HCT-116 16.2 µM | LOX IMVI 13.8 µM

O=c1[nH]nc(-c2cccc([N+](=O)[O-])c2)[nH]1
inactive: RXF 393 > 100 µM | MCF7 > 100 µM | TK-10 > 100 µM | NCI-H226 > 100 µM | ACHN > 100 µM | IGROV-1 > 100 µM | SK-MEL-2 > 100 µM | A549 > 100 µM | NCI-H23 > 100 µM | SF-539 > 100 µM | PC-3 > 100 µM | NCI-H460 > 100 µM | HOP-62 > 100 µM | HT-29 > 100 µM | RPMI-8226 > 100 µM | 786-0 > 100 µM | OVCAR-3 > 100 µM | COLO 205 > 100 µM | HCT-116 > 100 µM | LOX IMVI > 100 µM
